{"source": "patent US12396977B2", "about": "“Composition for treating degenerative brain diseases, containing 2-pentylfuran as active ingredient” (DAEGU GYEONGBUK INSTITUTE OF SCIENCE AND TECHNOLOGY, priority 2019, dated 2025)", "key": {"Olfr110": {"biological_target": "T1, Olfr110 (Mus musculus, UniProt A2RT31)", "T1 construct": "Full-length odorant receptor genes from mouse and human genomic DNA were amplified using appropriate primers; Lucy (N); Flag (N); Rho (N); expressed in transfected cells; host or cells: Hana3A cells, co-transfected with RTP1S, pCRELuc and pRL-SV40", "T1 sequence (A2RT31 1-317)": "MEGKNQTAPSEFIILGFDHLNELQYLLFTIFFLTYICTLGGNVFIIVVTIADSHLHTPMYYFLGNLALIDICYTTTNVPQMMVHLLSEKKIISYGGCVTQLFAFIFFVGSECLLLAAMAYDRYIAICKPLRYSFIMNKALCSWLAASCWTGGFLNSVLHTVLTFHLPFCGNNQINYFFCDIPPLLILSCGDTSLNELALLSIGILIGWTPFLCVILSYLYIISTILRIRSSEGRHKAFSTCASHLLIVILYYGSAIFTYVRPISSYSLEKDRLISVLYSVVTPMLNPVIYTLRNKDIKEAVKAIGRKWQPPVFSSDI", "test": "Luciferase assay in Hana3A cells, Olfr110", "type": "cell-based", "settings": "for reactivity of Olfr110 (relative luciferase activity): Hana3A cells", "quoted_text": "(§1) Next, Hana3A cells were transfected with RTP1S, and their location and presence on the cell membrane were confirmed as previously described (Behrens et al., 2009; Zhuang and Matsunami, 2008). Such transfection was performed using Lipofectamine 2000 (#11668-019; Thermo Fisher Scientific) according to the manufacturer's instructions. More specifically, the transfected cells were grown on a coverslip (#0101050; Marienfeld) coated with poly D lysine (10 μg/ml; #P7280; Sigma Aldrich). Next, the cells were washed with a warm PBS solution and cooled with ice for 30 minutes to block endocytosis. […] The cells were then incubated with normal horse serum (#008-000-121; Jackson ImmunoResearch) at room temperature for 1 hour. […] After being washed with PBS, the cells were treated with a Cy3-conjugated donkey anti-mouse antibody (1:1,000; #715-165-150; Jackson ImmunoResearch), an Alexa488-conjugated donkey anti-mouse antibody (1:1,000; #715-545-150; Jackson ImmunoResearch), or a Cy3-conjugated donkey anti-rabbit antibody (1:1,000; #711-165-152; Jackson ImmunoResearch) at room temperature for 1 hour. The cells were mounted with a Vectashield fluorescent mounting medium containing DAPI (#H-1200; Vector Laboratories). The expression of heterologous odorant receptors was analyzed with a confocal laser scanning microscope LSM700 and ZEN software (Zeiss).\n(§2) The Dual-Glo luciferase assay system (#E2940; Promega) was used for odorant receptor ligand screening. More specifically, Hana3A cells were streaked and spread on a white polystyrene 96-well plate (#353296; BD Biosciences) one day before transfection. pCRELuc (1 μg; #219076; Agilent Technologies), pRL-SV40 (1 μg; #E2231; Promega), RTP1S (1 μg), and OR (6 μg; or Mock) vectors were transfected for 24 hours in each plate. Each plate was analyzed using Lipofectamine 2000 (#11668-019; Thermo Fisher Scientific) according to the manufacturer's protocol. Transfected cells were stimulated in CD293 medium (#11913-019; Thermo Fisher Scientific) at 37° C. for 4 hours using diluted odorants at various concentrations. The activity of luciferase was normalized by the activity of Renilla luciferase. The amount of light emitted was measured using a SpectraMax L microplate reader (Molecular Devices)."}, "primary microglia [1]": {"system": "primary microglia", "test": "Active oxygen (ROS) production in primary microglia", "type": "cell-based, mouse", "settings": "for ROS (active oxygen) generation induced by 2-PF after inhibitor pretreatment: then 2-PF", "description": "Superoxide concentrations were calculated by measuring the degree of decrease in cytochrome c using a VersaMax microplate reader (Babior et al., 1973). Microglia were cultured on a 96-well plate at a concentration of 1.0×10^5 cells/well, and the microglia were activated by a 10 μM ATP solution containing 2-pentylfuran and cytochrome c, or a solution of Sup mixed with cytochalasin B (5 μM; #C66762; Sigma Aldrich). The resulting ROS concentration was measured by changes in light absorption at 550 nm at intervals of 1 minute for 25 minutes.\nActive oxygen levels were measured using 2′,7′-dichlorodihydrofluorescein diacetate (DCF-DA, #D6883; Sigma Aldrich) using a method that had undergone minor modifications from the existing method. (Bae et al., 2001). More specifically, the primary microglia were treated with 10 μM DCF-DA in a 24-well plate (5.0×10^5 cells/well) […] at a temperature of 37° C. for 30 minutes. One plate was treated with 2-PF and one was not. Cells in each well were measured by a flow cytometer (FACS Accuri™ C6; BD Biosciences). MFI was measured in the same manner as described above."}, "Olfr111": {"system": "Olfr111", "test": "Luciferase assay in Hana3A cells, Olfr111", "type": "cell-based, mouse", "settings": "for reactivity of Olfr111 (relative luciferase activity): Hana3A cells", "quoted_text": "as §1, §2"}, "primary microglia [2]": {"system": "primary microglia", "test": "Cytokine mRNA (qRT-PCR) and protein (ELISA) in microglia", "type": "cell-based, mouse", "settings": "then 2-PF", "description": "In the present example, microglia or astrocytes were primarily extracted from the cerebral cortex of E18.5 mouse embryos (Tamashiro et al., 2012) and then cultured as in Example 1. More specifically, the cortex of mouse embryos was collected and then stored in a cold supernatant (#14170-112; Thermo Fisher Scientific) and pretreated at 37° C. in a 0.25% trypsin solution (#15090-046; Thermo Fisher Scientific) for 20 minutes. Then, cells were plated in a minimal nutrient medium supplemented with 10% FBS (#SH30919.03; Hyclone), 2 mM L-glutamine (#25030-081; Thermo Fisher Scientific), 0.04% glucose (#G7021; Sigma Aldrich), and 1% penicillin/streptomycin (#15140-122; Thermo Fisher Scientific), and then filtered using a 40 μm strainer (#352340; Thermo Fisher Scientific). Microglia were plated at a density of 1.2×10^7 cells in a T75 flask coated with poly-D-lysine (#P7280; Sigma Aldrich). After 2 hours, the mixture was transferred to a Dulbecco's modified eagle medium (DMEM; #SH30243.01; Hyclone), and the medium was replaced every 3 days for 2 weeks. In order to separate the microglia from this mixed solution, first, the mixed solution was shaken at 37° C. at 150 rpm for 2 hours, then the mixed solution containing microglia was separately extracted from the top and transferred, and then the microglia were isolated by centrifugation at 1300 rpm at room temperature for 5 minutes. The isolated microglia were transferred to a culture medium. After the microglia were transferred, the microglia were completely removed by shaking the remaining mixed solution at 160 rpm for 1 day for culturing. Then, astrocytes were isolated by treatment with 0.25% trypsin and again cultured in a T75 flask for 4 days for collection. The purity of the collected microglia and astrocytes was evaluated by qRT-PCR analysis and by immunocytochemistry using Iba-1 and Gfap, which are a marker gene and a protein, respectively.\nFor the measurement of mRNA, RNA was isolated from red blood cells, microglia, astrocytes, Hana3A cells, or cerebral cortical cells using the MagNa Lyser (Roche Molecular Diagnostics) using TRIzol reagent (Invitrogen, Carlsbad, CA.) according to the manufacturer's protocol. Then, cDNA was generated through reverse transcription using the isolated mRNA (using PrimeScript™ 1st str and cDNA Synthesis kit—#6110; Takara Bio Inc). This process was quantitatively measured in real time through quantitative real-time-PCR (using LightCycler® 480 SYBR Green I Master). The measured values were calculated using the 2-ΔΔCt method.\nThe expression levels of Tnf, il6, and Il1b cytokines secreted from microglia were measured according to the manufacturer's protocol. More specifically, the expression levels were measured by ELISA 24 hours after treatment with 2-PF or a cell supernatant. […]"}, "primary microglia [3]": {"system": "primary microglia", "test": "Western blot of phosphorylated signalling proteins in primary microglia", "type": "cell-based, mouse", "settings": "inhibitor pre-culture, then 2-PF", "description": "Cells and tissues were prepared using the T-PER® reagent (#78510; Thermo Fisher Scientific) with protease inhibitors (#04-693-116-001; Roche Molecular Diagnostics), DMSF (Sigma-Aldrich) and lysed using the MagNA Lyser (Roche Molecular Diagnostics). A total protein extract was quantified by the Bradford assay. The sample was dissolved in 7.5% SDS-PAGE or 4 to 20% gradient mini-PROTEIN TGX Precast Gels (#456-1064; Bio-Rad Laboratories), and then blotted onto nitrocellulose membranes (#10600002; GE Healthcare). The membrane was then blocked in 5% skimmed milk powder, TBST, 0.1% TWEEN® 20 (#P9416; Sigma-Aldrich) and Tris-buffered saline for 1 hour, and then incubated with primary antibodies at 4° C. overnight. The antibodies are as follows: Olfr110 (36 kDa; 1:1,000; #ab177327; Abcam), anti rhodopsin (39 kDa; 1:1,000; #MABN15; Millipore), CREB (43 kDa; 1:1,000; #9197; Cell Signaling Technology), phospho-CREB (43 kDa; 1:1,000; #9198; Cell Signaling Technology), ERK (44 kDa; 1:1,000; #sc094; Santa Cruz), phospho-ERK (42, 44 kDa; 1:1,000; #sc-7383; Santa Cruz), phospho-Akt (60 kDa; 1:500; sc-293125; Santa Cruz), phospho-JNK (46, 54 kDa; 1:500; sc-6254; Santa Cruz), phosphor-p38 (38 kDa; 1:1,000; sc-7973; Santa Cruz), or beta-Actin (45 kDa; 1:10,000; #4967; Cell Signaling Technology). Furthermore, an isotype-matched horseradish peroxidase-conjugated secondary antibody was used at 1:100,000 with anti-rabbit in TBST (#711-035-152; Jackson ImmunoResearch) and 1:40,000 with anti-mouse (#715-035-150; Jackson ImmunoResearch) at room temperature for 2 hours. As an immunoreactive protein band, SuperSignal™ West Pico Chemiluminescent Substrate (#34080; Thermo Fisher Scientific) was used."}, "[4]": {"system": "Olfr920, Olfr1417, and Olfr99", "settings": "Hana3A cells; MOCK also responded", "quoted_text": "Next, Hana3A cells were transfected with RTP1S, and their location and presence on the cell membrane were confirmed as previously described (Behrens et al., 2009; Zhuang and Matsunami, 2008). Such transfection was performed using Lipofectamine 2000 (#11668-019; Thermo Fisher Scientific) according to the manufacturer's instructions. More specifically, the transfected cells were grown on a coverslip (#0101050; Marienfeld) coated with poly D lysine (10 μg/ml; #P7280; Sigma Aldrich). Next, the cells were washed with a warm PBS solution and cooled with ice for 30 minutes to block endocytosis. […] The cells were then incubated with normal horse serum (#008-000-121; Jackson ImmunoResearch) at room temperature for 1 hour. The resulting cells were incubated with mouse anti rhodopsin (anti-Rho; 1:1,000; #MABN15; Millipore) or rabbit anti Olfr110 (#ab177327; Abcam) at 4° C. overnight. […] The expression of heterologous odorant receptors was analyzed with a confocal laser scanning microscope LSM700 and ZEN software (Zeiss). […] Each plate was analyzed using Lipofectamine 2000 (#11668-019; Thermo Fisher Scientific) according to the manufacturer's protocol. […] The amount of light emitted was measured using a SpectraMax L microplate reader (Molecular Devices)."}}, "data": [{"smiles": "CCc1ccco1", "note": "[2-EF, 2-ethylfuran]", "values": [{"measurement": "binding to Olfr110", "setting": "Olfr110", "value": "do not bind"}, {"measurement": "mode of action at Olfr110", "setting": "Olfr110", "value": "competitive inhibitor (antagonist)"}, {"measurement": "active oxygen produced by Sup MOI of 100", "setting": "primary microglia [1]; 2-EF pretreated at 0, 100, 300, 500 μM", "value": "decreased as the concentration of 2-EF increased"}, {"measurement": "active oxygen produced by Sup MOI 5 plus 500 μM 2-PF", "setting": "primary microglia [1]; 2-ethylfuran 0, 100, 300, 500 μM simultaneously", "value": "the higher the concentration of 2-EF added, the lower the concentration of active oxygen produced"}, {"measurement": "binding to Olfr111", "setting": "Olfr111", "value": "do not bind"}]}, {"smiles": "CCCc1ccco1", "note": "[2-propylfuran]", "values": [{"measurement": "reactivity of Olfr110 (relative luciferase activity)", "setting": "Olfr110", "value": "showed reactivity"}, {"measurement": "reactivity of Olfr111 (relative luciferase activity)", "setting": "Olfr111", "value": "showed reactivity"}]}, {"smiles": "CCCCc1ccco1", "note": "[2-butylfuran]", "values": [{"measurement": "reactivity of Olfr110 (relative luciferase activity)", "setting": "Olfr110", "value": "showed reactivity"}, {"measurement": "reactivity of Olfr111 (relative luciferase activity)", "setting": "Olfr111", "value": "showed reactivity"}]}, {"smiles": "Cc1ccco1", "note": "[2-methylfuran]", "values": [{"measurement": "binding to Olfr110", "setting": "Olfr110", "value": "do not bind"}, {"measurement": "binding to Olfr111", "setting": "Olfr111", "value": "do not bind"}]}, {"smiles": "O=S(=O)(NCCNC/C=C/c1ccc(Br)cc1)c1cccc2cnccc12", "note": "[H-89]", "values": [{"measurement": "Tnf and Il6 cytokine levels induced by 2-PF after inhibitor pretreatment", "setting": "primary microglia [2]", "value": "great decrease"}]}, {"smiles": "COc1ccc2c(c1)CC[C@@H]1[C@@H]2CC[C@]2(C)[C@@H](NCCCCCCN3C(=O)C=CC3=O)CC[C@@H]12", "note": "[U73122]", "values": [{"measurement": "ROS (active oxygen) generation induced by 2-PF after inhibitor pretreatment", "setting": "primary microglia [1]", "value": "completely inhibited"}, {"measurement": "Tnf and Il6 cytokine levels induced by 2-PF after inhibitor pretreatment", "setting": "primary microglia [2]", "value": "relatively less decrease"}]}, {"smiles": "CCCCCCCc1ccco1", "note": "[2-heptylfuran]", "values": [{"measurement": "binding to Olfr110", "setting": "Olfr110", "value": "do not bind"}, {"measurement": "binding to Olfr111", "setting": "Olfr111", "value": "do not bind"}]}, {"smiles": "O=C1OC2(c3ccccc31)c1ccc(O)c(O)c1Oc1c2ccc(O)c1O", "note": "[gallein]", "values": [{"measurement": "ROS (active oxygen) generation induced by 2-PF after inhibitor pretreatment", "setting": "primary microglia [1]", "value": "similarly inhibited"}]}, {"smiles": "CC(C)(C)c1ccco1", "note": "[2-t-butylfuran]", "values": [{"measurement": "reactivity of Olfr110 (relative luciferase activity)", "setting": "Olfr110", "value": "showed reactivity"}, {"measurement": "reactivity of Olfr111 (relative luciferase activity)", "setting": "Olfr111", "value": "showed reactivity"}]}, {"smiles": "COc1cccc(-c2cc(=O)c3ccccc3o2)c1N", "note": "[pd98059]", "values": [{"measurement": "Tnf and Il6 cytokine levels induced by 2-PF after inhibitor pretreatment", "setting": "primary microglia [2]", "value": "relatively less decrease"}, {"measurement": "CREB and ERK phosphorylation after inhibitor pre-culture and 2-PF", "setting": "primary microglia [3]", "value": "greatly decreased"}]}, {"smiles": "CCCCCCc1ccco1", "note": "[2-hexylfuran]", "values": [{"measurement": "binding to Olfr110", "setting": "Olfr110", "value": "do not bind"}, {"measurement": "reactivity of Olfr110 (relative luciferase activity)", "setting": "Olfr110", "value": "showed reactivity"}, {"measurement": "binding to Olfr111", "setting": "Olfr111", "value": "do not bind"}, {"measurement": "reactivity of Olfr111 (relative luciferase activity)", "setting": "Olfr111", "value": "showed reactivity"}]}, {"smiles": "Nc1ncnc2c1ncn2C1CCCO1", "note": "(stereo not drawn) [SQ22536]", "values": [{"measurement": "Tnf and Il6 cytokine levels induced by 2-PF after inhibitor pretreatment", "setting": "primary microglia [2]", "value": "great decrease"}, {"measurement": "CREB and ERK phosphorylation after inhibitor pre-culture and 2-PF", "setting": "primary microglia [3]", "value": "greatly decreased"}]}, {"smiles": "CCO", "note": "[ethanol]", "values": [{"measurement": "reactivity of the remaining three receptors (luciferase)", "setting": "[4]", "value": "non-specific reaction"}]}, {"smiles": "Cc1ccoc1C", "note": "[2,3-dimethylfuran]", "values": [{"measurement": "binding to Olfr110", "setting": "Olfr110", "value": "do not bind"}, {"measurement": "binding to Olfr111", "setting": "Olfr111", "value": "do not bind"}]}]}
